Measurements taken from patent publication US9026203B2, “Photosensitizing compositions” (PCI Biotech AS, priority 2009, dated 2015).
Read-outs that look alike come from different tables or passages of the source.

What was measured:
[1] = Stability of aqueous solutions of salts at 40° C., analyzed by HPLC; type: physicochemical
Method: Aqueous solutions of TPPS2a salts (approx. 1% weight) were kept at 40° C. for 31 days. The solutions were analyzed by HPLC (HP 1100). The HPLC conditions were as follows:
Column: Agilent Extend C-18
Mobile phase: 85% methanol, 15% water
Detector: UV detector, 415 nm
Aqueous solutions of TPCS2a salts (approx. 1% weight) were kept at 40° C. for 31 days.

[2] = tested on: target tumour (head and neck squamous cell carcinoma, osteosarcoma, skin metastases of breast cancer); conditions: other photosensitizers formulated in non-aqueous formulations; cited from earlier work
[3] = tested on: target tumour (head and neck squamous cell carcinoma, osteosarcoma, skin metastases of breast cancer); type: in vivo, patients; conditions: 0.25-1.0 mg/kg 4 days before illumination (652 nm, 60 J/cm^2), bleomycin 15 000 IU per m^2 i.v. 3 hours before illumination; a few weeks after treatment
Method: In addition, the patients received an intravenous injection of the cytotoxic agent bleomycin (15 000 IU per m^2 body surface) 3 hours before illumination. […] The aqueous formulation also made it possible to flush the injection needle and vein with saline after photosensitizer injection, thereby eliminating the unwanted effect of photosensitivity at or near to the injection site which is often observed for photosensitizers in non-aqueous formulations where such flushing is not possible. The patient population included patients with head and neck cancers (squamous cell carcinoma), osteosarcoma and skin metastases of breast cancer.

[4] = Solubility of salts in water (water added in 0.2 ml portions); type: physicochemical
Description: The mixture was agitated until solid particles were broken up and dissolved.

[5] = aqueous solution approx. 1% weight, 40° C. for 31 days, HPLC UV 415 nm

Compound	Degradation [1, 5]	Degradation [1]	also measured
O=S(=O)(O)c1ccc(-c2c3nc(c(-c4ccc(S(=O)(=O)O)cc4)c4ccc([nH]4)c(-c4ccccc4)c4nc(c(-c5ccccc5)c5ccc2[nH]5)C=C4)C=C3)cc1.OCCN(CCO)CCO.OCCN(CCO)CCO [Example 6, Meso-Tetraphenyl Porphyrin Disulphonate bis(triethanolamine)]	No degradation		
NCCO.NCCO.O=S(=O)(O)c1ccc(-c2c3nc(c(-c4ccc(S(=O)(=O)O)cc4)c4ccc([nH]4)c(-c4ccccc4)c4nc(c(-c5ccccc5)c5ccc2[nH]5)C=C4)C=C3)cc1 [Example 1, Meso-Tetraphenyl Porphyrin Disulphonate bis(monoethanolamine)]	No degradation		
O=S(=O)(O)c1ccc(-c2c3nc(c(-c4ccc(S(=O)(=O)O)cc4)c4ccc([nH]4)c(-c4ccccc4)c4nc(c(-c5ccccc5)c5ccc2[nH]5)C=C4)C=C3)cc1.OCCN1CCCC1.OCCN1CCCC1 [Example 5, Meso-Tetraphenyl Porphyrin Disulphonate bis(1-(2-hydroxyethyl)pyrrolidine)]		No degradation	
Oc1cccc(-c2c3nc(c(-c4cccc(O)c4)c4ccc([nH]4)c(-c4cccc(O)c4)c4nc(c(-c5cccc(O)c5)c5ccc2[nH]5)CC4)C=C3)c1 [temoporfin]			Pain on administration [2]: can be associated with strong pain
Meso-Tetraphenyl Chlorin Disulphonate bis(monoethanolamine) [Example 7]		No degradation	
Meso-tetraphenyl chlorin disulphonate [TPCS2a]			Clinical regression of the target tumour [3]: Complete clinical regression of the target tumour was induced in all patients
CNCC(O)C(O)C(O)C(O)CO.CNCC(O)C(O)C(O)C(O)CO.O=S(=O)(O)c1ccc(-c2c3nc(c(-c4ccccc4)c4ccc([nH]4)c(-c4ccccc4)c4nc(c(-c5ccc(S(=O)(=O)O)cc5)c5ccc2[nH]5)C=C4)C=C3)cc1 [Example 2, Meso-Tetraphenyl Porphyrin Disulphonate bis(meglumate)]		No degradation	Minimum solubility in water [4]: 89.7 mg/mL
Meso-Tetraphenyl Chlorin Disulphonate bis(meglumate) [Example 8]	No degradation		Minimum solubility in water ([4]; approx. 50 mg salt, water added in 0.2 ml portions until dissolved): 38.9 mg/mL
O=S(=O)(O)c1ccc(-c2c3nc(c(-c4ccccc4)c4ccc([nH]4)c(-c4ccccc4)c4nc(c(-c5ccc(S(=O)(=O)O)cc5)c5ccc2[nH]5)C=C4)C=C3)cc1.OCCNCCO.OCCNCCO [Example 4, Meso-Tetraphenyl Porphyrin Disulphonate bis(diethanolamine)]		No degradation	
